The record followed here is PubChem BioAssay AID242 (DTP/NCI, 2004).

Structures are written as SMILES. Values joined by “and” are separate entries in the source; they are usually repeats but may differ in a detail not shown here. Equal entries are not always repeated. Inconclusive results and toxic doses are left out.

This experiment deals with BDF1 mice, Lymphoma 8 ip, survival T/C. The experiment is described as follows: NCI In Vivo Anticancer Drug Screen. Data for tumor model Lymphoma 8 (intraperitoneal) in B6D2F1 (BDF1) mice. The following applies: higher = longer survival. As for the experimental part:
The antitumor activity of compounds was measured in mice bearing transplantable tumors. Survival or tumor size were measured and the results are expressed as the measurement made in the treated group (T) divided by the measurement made in the vehicle treated control group (C). The tumor model used in this assay is Lymphoma 8 (intraperitoneal) in B6D2F1 (BDF1) mice

Where [1] appears, read: endpoint: survival time, mean or median, dose: 62.5 mg/kg/injection, schedule: Q01DX010 (ip), vehicle: saline.
Setting [2] is: endpoint: survival time, mean or median, dose: 125.0 mg/kg/injection, schedule: Q01DX010 (ip), vehicle: saline.
[3] abbreviates: endpoint: survival time, mean or median, dose: 250.0 mg/kg/injection, schedule: Q01DX010 (ip), vehicle: saline.
The mark [4] stands for this setting: endpoint: survival time, mean or median, dose: 500.0 mg/kg/injection, schedule: Q01DX010 (ip), vehicle: saline.
The mark [5] stands for this setting: endpoint: survival time, mean or median, dose: 5.0 mg/kg/injection, schedule: Q01DX010 (ip), vehicle: saline.
[6] abbreviates: endpoint: survival time, mean or median, dose: 10.0 mg/kg/injection, schedule: Q01DX010 (ip), vehicle: saline.
Setting [7] is: endpoint: survival time, mean or median, dose: 20.0 mg/kg/injection, schedule: Q01DX010 (ip), vehicle: saline.
Setting [8] is: endpoint: survival time, mean or median, dose: 50.0 mg/kg/injection, schedule: Q01DX010 (ip), vehicle: saline.
The mark [9] stands for this setting: endpoint: survival time, mean or median, dose: 100.0 mg/kg/injection, schedule: Q01DX010 (ip), vehicle: saline.
Where [10] appears, read: endpoint: survival time, mean or median, dose: 25.0 mg/kg/injection, schedule: Q01DX015 (ip), vehicle: carboxymethylcellulose (CMC).
Setting [11] is: endpoint: survival time, mean or median, dose: 50.0 mg/kg/injection, schedule: Q01DX015 (ip), vehicle: carboxymethylcellulose (CMC).
The mark [12] stands for this setting: endpoint: survival time, mean or median, dose: 100.0 mg/kg/injection, schedule: Q01DX015 (ip), vehicle: carboxymethylcellulose (CMC).
The mark [13] stands for this setting: endpoint: survival time, mean or median, dose: 25.0 mg/kg/injection, schedule: Q01DX010 (ip), vehicle: saline.
[14] abbreviates: endpoint: survival time, mean or median, dose: 12.5 mg/kg/injection, schedule: Q01DX010 (ip), vehicle: saline.
Setting [15] is: endpoint: survival time, mean or median, dose: 12.5 mg/kg/injection, schedule: Q01DX015 (ip), vehicle: carboxymethylcellulose (CMC).

`CC(CCC(C)OS(C)(=O)=O)OS(C)(=O)=O` (stereo not given): the T/C runs as follows: (endpoint: survival time, mean or median, dose: 2.0 mg/kg/injection, schedule: Q01DX010 (ip), vehicle: saline) 92 % of control and 100 % of control; (endpoint: survival time, mean or median, dose: 4.0 mg/kg/injection, schedule: Q01DX010 (ip), vehicle: saline) 103 % of control and 104 % of control; (endpoint: survival time, mean or median, dose: 8.0 mg/kg/injection, schedule: Q01DX010 (ip), vehicle: saline) 103 % of control and 104 % of control; (endpoint: survival time, mean or median, dose: 16.0 mg/kg/injection, schedule: Q01DX010 (ip), vehicle: saline) 100 % of control and 116 % of control.
As to `CC(=O)N(C)C`, the T/C was 86 % of control and 105 % of control and 121 % of control under setting [1]; 95 % of control and 100 % of control and 112 % of control under setting [2]; 95 % of control and 105 % of control under setting [3]; 95 % of control and 100 % of control and 115 % of control under setting [4].
In the case of `CN(C)c1ccc(/C=C/c2ccnc3ccccc23)cc1`, the T/C under setting [5] was 104 % of control and 118 % of control; the T/C under setting [6] is 86 % of control and 109 % of control; the T/C under setting [7] is 86 % of control and 104 % of control; the T/C (endpoint: survival time, mean or median, dose: 40.0 mg/kg/injection, schedule: Q01DX010 (ip), vehicle: saline) is 95 % of control and 100 % of control.
In the case of `COc1ccccc1CNCCO`, the T/C under setting [8] was 103 % of control; the T/C under setting [9] is 103 % of control; the T/C (endpoint: survival time, mean or median, dose: 200.0 mg/kg/injection, schedule: Q01DX010 (ip), vehicle: saline) is 93 % of control.
Take `NC(C/[N+]([O-])=N/O)C(=O)O` (stereo not given): the T/C reads like this: (endpoint: median survival time, dose: 12.5 mg/kg/injection, schedule: Q01DX009 (ip), vehicle: saline) 113 % of control; (endpoint: median survival time, dose: 25.0 mg/kg/injection, schedule: Q01DX009 (ip), vehicle: saline) 117 % of control.
`CCN(CCNc1ccc(C)c2sc3cc(Cl)ccc3c(=O)c12)CC(C)O` (stereo not given): the T/C is, setting by setting: (endpoint: survival time, mean or median, dose: 7.8 mg/kg/injection, schedule: Q01DX010 (ip), vehicle: saline) 100 % of control; (endpoint: survival time, mean or median, dose: 15.6 mg/kg/injection, schedule: Q01DX010 (ip), vehicle: saline) 100 % of control; (endpoint: survival time, mean or median, dose: 31.3 mg/kg/injection, schedule: Q01DX010 (ip), vehicle: saline) 96 % of control.
For the compound `S=P(N1CCOCC1)(N1CC1)N1CC1`, the T/C is 100 % of control and 113 % of control (endpoint: survival time, mean or median, dose: 2.5 mg/kg/injection, schedule: Q01DX010 (ip), vehicle: saline); 104 % of control and 109 % of control under setting [5]; 113 % of control under setting [6]; 86 % of control and 122 % of control under setting [7].
Consider `O=c1cn[nH]c(=O)[nH]1`, for which the T/C runs as follows: under setting [1], 95 % of control and 100 % of control and 109 % of control; under setting [2], 91 % of control and 95 % of control and 110 % of control; under setting [3], 90 % of control and 93 % of control and 115 % of control; under setting [4], 100 % of control (2×) and 106 % of control.
Turning to `N[C@H](C(=O)O)[C@@H]1CC(Cl)=NO1`, the T/C was 92 % of control (endpoint: median survival time, dose: 0.38 mg/kg/injection, schedule: Q01DX009 (ip), vehicle: saline); 78 % of control (endpoint: median survival time, dose: 0.75 mg/kg/injection, schedule: Q01DX009 (ip), vehicle: saline); 69 % of control (endpoint: median survival time, dose: 1.5 mg/kg/injection, schedule: Q01DX009 (ip), vehicle: saline); 74 % of control (endpoint: median survival time, dose: 3.0 mg/kg/injection, schedule: Q01DX009 (ip), vehicle: saline).
As for `Clc1ncnc2nc[nH]c12`, the T/C (endpoint: survival time, mean or median, dose: 7.5 mg/kg/injection, schedule: Q01DX010 (ip), vehicle: saline) is 100 % of control; the T/C (endpoint: survival time, mean or median, dose: 15.0 mg/kg/injection, schedule: Q01DX010 (ip), vehicle: saline) is 100 % of control; the T/C (endpoint: survival time, mean or median, dose: 30.0 mg/kg/injection, schedule: Q01DX010 (ip), vehicle: saline) was 110 % of control; the T/C (endpoint: survival time, mean or median, dose: 60.0 mg/kg/injection, schedule: Q01DX010 (ip), vehicle: saline) is 100 % of control.
Regarding `COc1cc(-c2ccc(Nc3ccccc3C(=O)O)c(OC)c2)ccc1Nc1ccccc1C(=O)O`, the T/C was 101 % of control under setting [10]; 89 % of control under setting [11]; 96 % of control under setting [12]; 90 % of control (endpoint: survival time, mean or median, dose: 200.0 mg/kg/injection, schedule: Q01DX015 (ip), vehicle: carboxymethylcellulose (CMC)).
In the case of `CSc1ncnc2nc[nH]c12`, the T/C under setting [13] was 103 % of control, the T/C under setting [8] was 103 % of control and the T/C under setting [9] was 100 % of control.
For the compound `C[C@H]1C(=O)O[C@@H]2CCN3CC=C(COC(=O)[C@](C)(O)[C@@]1(C)O)[C@H]23`, the T/C is, setting by setting: (endpoint: survival time, mean or median, dose: 3.13 mg/kg/injection, schedule: Q01DX010 (ip), vehicle: saline) 116 % of control; (endpoint: survival time, mean or median, dose: 6.25 mg/kg/injection, schedule: Q01DX010 (ip), vehicle: saline) 100 % of control; under setting [14], 104 % of control; under setting [13], 104 % of control.
On to `CS(=O)(=O)OCCC(=O)N1CCN(C(=O)CCOS(C)(=O)=O)CC1`, for which the T/C under setting [14] is 116 % of control, the T/C under setting [13] was 123 % of control, the T/C under setting [8] was 156 % of control and the T/C under setting [9] is 203 % of control.
Regarding `CCCCN(CCCC)CCCCCN`, the T/C (endpoint: survival time, mean or median, dose: 5.0 mg/kg/injection, schedule: Q01DX015 (ip), vehicle: carboxymethylcellulose (CMC)) is 99 % of control; the T/C (endpoint: survival time, mean or median, dose: 10.0 mg/kg/injection, schedule: Q01DX015 (ip), vehicle: carboxymethylcellulose (CMC)) was 101 % of control; the T/C (endpoint: survival time, mean or median, dose: 20.0 mg/kg/injection, schedule: Q01DX015 (ip), vehicle: carboxymethylcellulose (CMC)) is 104 % of control; the T/C (endpoint: survival time, mean or median, dose: 30.0 mg/kg/injection, schedule: Q01DX015 (ip), vehicle: carboxymethylcellulose (CMC)) was 99 % of control.
As for `O=C(O)CC(NC(=O)CP(=O)(O)O)C(=O)O` (stereo not given), the T/C is 101 % of control (endpoint: median survival time, dose: 62.2 mg/kg/injection, schedule: Q04DX003 (ip), vehicle: saline); 114 % of control (endpoint: median survival time, dose: 104.0 mg/kg/injection, schedule: Q04DX003 (ip), vehicle: saline); 103 % of control (endpoint: median survival time, dose: 173.0 mg/kg/injection, schedule: Q04DX003 (ip), vehicle: saline); 108 % of control (endpoint: median survival time, dose: 288.0 mg/kg/injection, schedule: Q04DX003 (ip), vehicle: saline); 111 % of control (endpoint: median survival time, dose: 480.0 mg/kg/injection, schedule: Q04DX003 (ip), vehicle: saline).
For `COc1ccc(C[n+]2cc([O-])on2)cc1`, the T/C under setting [15] was 99 % of control, the T/C under setting [10] was 106 % of control, the T/C under setting [11] was 100 % of control and the T/C under setting [12] is 113 % of control.
On to `CC(=O)Nc1ccc2nc3ccc(NC(C)=O)cc3[n+](-c3ccccc3)c2c1`, for which the T/C reads like this: under setting [13], 107 % of control; under setting [8], 89 % of control; under setting [9], 92 % of control.
With `Nc1nc(SCc2ccccn2)c2[nH]cnc2n1`, the T/C was 98 % of control under setting [15], 96 % of control under setting [10] and 104 % of control under setting [12].
For the compound `CC(=O)NC1=C(N2CC2)C(=O)C(NC(C)=O)=C(N2CC2)C1=O`, the T/C was 174 % of control (endpoint: survival time, mean or median, dose: 0.5 mg/kg/injection, schedule: Q01DX015 (ip), vehicle: carboxymethylcellulose (CMC)) and 150 % of control (endpoint: survival time, mean or median, dose: 1.0 mg/kg/injection, schedule: Q01DX015 (ip), vehicle: carboxymethylcellulose (CMC)).
For the compound `CN(N=O)C(N)=O`, the T/C is 114 % of control under setting [5] and 110 % of control under setting [7].
Consider `N[C@@H](Cc1ccc(N(CCCl)CCCl)cc1)C(=O)O`, for which the T/C (endpoint: survival time, mean or median, dose: 4.0 mg/kg/injection, schedule: Q01DX015 (ip), vehicle: carboxymethylcellulose (CMC)) is 91 % of control.
As for `Oc1cc(CN(CCCl)CCCl)c(O)cc1CN(CCCl)CCCl`, the T/C is, setting by setting: (endpoint: survival time, mean or median, dose: 0.63 mg/kg/injection, schedule: Q01DX010 (ip), vehicle: saline) 104 % of control and 107 % of control; (endpoint: survival time, mean or median, dose: 1.25 mg/kg/injection, schedule: Q01DX010 (ip), vehicle: saline) 104 % of control; under setting [5], 103 % of control and 120 % of control.
For the compound `CN(C)C(=S)N=Nc1c(O)[nH]c2ccccc12`, the T/C was 124 % of control under setting [10] and 104 % of control under setting [12].
